The text below walks through data of patent US5112841A, “Imidazole derivatives and antiepileptics comprising said imidazole derivatives as effective ingredients” (Mitsui Toatsu Chemicals, Incorporated, priority 1990, dated 1992).

A short description of data set [1]: in vivo. The arrangement: species or system ddy Male mice. The note with it: mouse, po. As to the method:
ddy Male mice (body weight: 25-30 g) were used in groups each of which consisted of 5-10 mice. A test compound was orally administered. One hour later, each mouse was caused to hold with the fore paws thereof a stainless steel wire whose diameter was 1.5 mm. […] Traction activity (%) was calculated in accordance with the following calculation formula, and ED50 (mg/Kg) was determined therefrom. [formula]

Data set [2] in a line: Acute Toxicity (death within 5 days). The note with it: mouse, in vivo, oral, death in 5 days (LD50 in the method text), read-out: ED50. The method, then: ddy Male mice (body weight: 25-30 g) were used in groups each of which consisted of 5-6 mice. A test compound was orally administered. Mice which died in 5 days were counted. Death rate (%) wa calculated in accordance with the following calculation formula, and LD50 (mg/Kg) was determined therefrom. [formula]

Data set [3] deals with mice. Briefly: Maximal Electroshock Seizure Test (tonic-extensor convulsions of hind legs). The format is in vivo, ddy Male mice. The note with it: Mus musculus; antiepileptic action; oral, electric shock 1 hour after dosing (200 Hz, 50 mA, 0.2 second). As to the method:
ddy Male mice (body weight: 25-30 g) were used in groups each of which consisted of 5-10 mice. A test compound was orally administered. One hour later, an electric shock (200 Hz, 50 mA, 0.2 second) was applied through corneal electrodes. […] Antiepileptic action (%) was calculated in accordance with the following calculation formula, and ED50 (mg/Kg) was determined therefrom. [formula]

A short description of data set [4]: in vivo. The arrangement: species or system ddy Male mice. The note with it: mouse, po. The method, then: ddy Male mice (body weight: 25-30 g) were used in groups each of which consisted of 5-10 mice. A test compound was orally administered One hour later, each mouse was placed on a rod which rotated a full turn per second. Mice which fell down within 120 seconds were counted. Rotorod action (%) was calculated in accordance with the following calculation formula, and ED50 (mg/Kg) was determined therefrom. [formula]
The source holds these as a separate data set.

Counter-ions that a name gives are not always drawn.

In the case of `COc1cccc(-c2cc(-n3cc(Cn4ccnc4)c4ccccc43)on2)c1.Cl` [Example 11, 1-(3-(3-Methoxyphenyl)-5-isoxazolyl}-3-(1-imidazolyl)methylindole hydrochloride], the TD50 at 1 h in data set [1] and in data set [4] was > 750 mg/kg each time. The LD50 at 120 h in data set [2] was > 1000 mg/kg. The same molecule displayed an ED50 in data set [3] of 14 mg/kg.
Regarding `COc1ccc(-c2cc(-n3cc(Cn4ccnc4)c4ccccc43)on2)cc1.Cl` [Example 6, 1-{3-(4-Methoxyphenyl)-5-isoxazolyl}-3-(1-imidazolyl)methylindol hydrochloride], the TD50 at 1 h in data set [1] and in data set [4] was > 750 mg/kg in each case. In data set [2], the LD50 at 120 h was > 1000 mg/kg. For the same molecule, the ED50 in data set [3] is 7 mg/kg.
On to `O=C1NC(=O)C(c2ccccc2)(c2ccccc2)N1` [Phenytoin.Na, reference compound], for which the TD50 at 1 h in data set [1] is 350 mg/kg; in data set [4] it was 186 mg/kg. Also, the LD50 at 120 h in data set [2] lay in the range of 300 to 500 mg/kg. Further, the ED50 in data set [3] worked out at 7 mg/kg.
Molecule `Cl.Clc1ccc(-c2cc(-n3cc(Cn4ccnc4)c4ccccc43)on2)cc1` [Example 4, 1-{3-(4-Chlorophenyl)-5-isoxazolyl}-3-(1-imidazolyl)methylindole hydrochloride] yielded a 50% effective dose (ED50) in data set [3] of 20 to 40 mg/kg.
Still for that read-out and setting: the value for `Cl.Clc1ccccc1-c1cc(-n2cc(Cn3ccnc3)c3ccccc32)on1` [Example 9, 1-{3-(2-Chlorophenyl)-5-isoxazolyl}-3-(1-imidazolyl)methylindole hydrochloride] was 20 to 40 mg/kg; that for `Cl.Fc1ccc(-c2cc(-n3cc(Cn4ccnc4)c4ccccc43)on2)cc1` [Example 3, 1-{3-(4-Fluorophenyl)-5-isoxazolyl)-3-(1-imidazolyl)methylindole hydrochloride] was 20 to 40 mg/kg; that for `Cl.N#Cc1ccc(-c2cc(-n3cc(Cn4ccnc4)c4ccccc43)on2)cc1` [Example 7, 1-(3-(4-Cyanophenyl)-5-isoxazolyl)-3-(1-imidazolyl)methylindole hydrochloride] was 20 to 40 mg/kg.
On the same count and under the same terms, the value for `Cl.FC(F)(F)c1ccc(-c2cc(-n3cc(Cn4ccnc4)c4ccccc43)on2)cc1` [Example 8, 1-{3-(4-Trifluoromethylphenyl)-5-isoxazolyl}-3-(1-imidazolyl)methylindole hydrochloride] was 20 to 40 mg/kg; that for `Cl.Clc1cccc(-c2cc(-n3cc(Cn4ccnc4)c4ccccc43)on2)c1` [Example 10, 1-{3-(3-Chlorophenyl)-5-isoxazolyl)-3-(1-imidazolyl)methylindole hydrochloride] was 20 to 40 mg/kg.
Turning to `Cl.c1ccc(-c2cc(-n3cc(Cn4ccnc4)c4ccccc43)on2)cc1` [Example 1, 1-(3-phenyl-5-isoxazolyl)-3-(1-imidazolyl)methylindole hydrochloride], the values for the TD50 at 1 h in data set [1] and in data set [4] were > 750 mg/kg and 500 mg/kg, respectively. The LD50 at 120 h in data set [2] is > 1000 mg/kg. This molecule came in with an ED50 in data set [3] of 9 mg/kg.
With `Cc1ccc(-c2cc(-n3cc(Cn4ccnc4)c4ccccc43)on2)cc1` [Example 5, 1-(3-(p-Toluyl)-5-isoxazolyl}-3-(l-imidazolyl)-methylindole hydrochloride], the ED50 in data set [3] was 16 mg/kg.
